Assay [1] concerns the target binding of substance P. The experiment in a line: antagonism of the binding of substance P on rat cortical membranes and IM9 lymphoblasts. To be noted: rat cortical membranes and/or IM9 lymphoblasts (not said which); read-out: Ki, antagonizes the binding of substance P.
Assay [2] deals with T1, binding of neurokinin A (NKA) (Rattus norvegicus, UniProt P16610).
T1 construct: tests performed on rat duodenal membranes; from tissue; host or cells: rat duodenal membranes
T1 sequence (P16610 1-390): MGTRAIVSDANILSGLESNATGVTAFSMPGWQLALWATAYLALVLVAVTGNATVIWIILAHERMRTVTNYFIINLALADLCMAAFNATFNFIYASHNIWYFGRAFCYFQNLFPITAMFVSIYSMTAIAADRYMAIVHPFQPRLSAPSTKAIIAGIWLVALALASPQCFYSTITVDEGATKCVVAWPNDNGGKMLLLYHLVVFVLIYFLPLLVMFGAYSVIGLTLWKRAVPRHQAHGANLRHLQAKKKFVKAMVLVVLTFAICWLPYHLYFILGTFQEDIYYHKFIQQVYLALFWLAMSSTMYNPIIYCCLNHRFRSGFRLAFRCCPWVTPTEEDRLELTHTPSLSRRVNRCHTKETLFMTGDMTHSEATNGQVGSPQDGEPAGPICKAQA
The experiment in a line: antagonism of the binding of NKA on rat duodenal membranes. The conditions noted are these: read-out: Ki, antagonizes the binding of neurokinin A.

In assay [3] the test system is NK1 receptor. To be noted: D. Regoli, 1988 and 1989; cited from earlier work.
The target of assay [4] is T2, binding of eledoisin (Rattus norvegicus, UniProt P16177).
T2 construct: tests performed on rat membranes; from tissue
T2 sequence (P16177 1-452): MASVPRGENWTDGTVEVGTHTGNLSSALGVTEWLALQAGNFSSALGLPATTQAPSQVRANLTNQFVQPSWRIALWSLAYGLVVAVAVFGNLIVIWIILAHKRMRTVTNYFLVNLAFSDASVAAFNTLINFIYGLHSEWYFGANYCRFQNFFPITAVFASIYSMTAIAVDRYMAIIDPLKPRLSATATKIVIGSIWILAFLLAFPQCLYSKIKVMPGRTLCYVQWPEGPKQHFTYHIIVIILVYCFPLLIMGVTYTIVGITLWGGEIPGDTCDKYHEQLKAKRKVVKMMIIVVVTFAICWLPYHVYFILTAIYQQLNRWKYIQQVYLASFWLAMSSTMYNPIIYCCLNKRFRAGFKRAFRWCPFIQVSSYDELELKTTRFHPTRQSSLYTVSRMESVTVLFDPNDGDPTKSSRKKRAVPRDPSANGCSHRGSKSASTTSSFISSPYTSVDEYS
The experiment in a line: antagonism of the binding of eledoisin on rat membranes. To be noted: read-out: Ki, antagonizes the binding of eledoisin. An excerpt: Foster et al., Br. J. Pharmacol., 1988, 94, 602-608.
Eledoisin is a peptide of batrachian origin which is equivalent to neurokinin B.

Structures can show the parent of a compound that is named as a salt.

As to `O=C(Cc1ccccc1)N1CCCC(CCN2CCC(Cc3ccccc3)CC2)(c2ccc(Cl)c(Cl)c2)C1` (stereo not shown) [Compound 2, 3-[2-(4-Benzylpiperidin-1-yl)ethyl]-3-(3,4-dichlorophenyl)-1-phenylacetylpiperidine hydrochloride], the Ki in assay [1] was found to be 8.3 nM.

Consider `O=C(c1ccccc1)N1CCC(CCN2CCC(O)(c3ccccc3)CC2)(c2ccc(Cl)c(Cl)c2)C1` (stereo not shown) [Compound 7], for which the Ki in assay [2] was 1.3 nM.

Turning to [Sar^9,Met-(O2)^11 ]SP, the “selectivity for the NK1 receptor” value in assay [3] is reported as “thought to have a selectivity for the NK1”.

With `O=C1CCC(CCN2CCC(O)(c3ccccc3)CC2)(c2ccc(Cl)c(Cl)c2)CN1Cc1ccccc1` (stereo not shown) [Compound 3], the Ki in assay [4] turned out to be 200 nM.

What is called Ki is the dissociation constant of the complex between target and ligand, obtained from inhibition or displacement.

(Values after patent US5340822A, “Polycyclic amine compounds and their enantiomers, their method of preparation and pharmaceutical compositions in which they are present” (Elf Sanofi, priority 1991, dated 1994).)
